Results published in PMC12686966, “Da‐Bu‐Yin‐Wan and Qian‐Zheng‐San Alleviate Parkinson's Disease by Activating the Keap1/Nrf2/HO‐1 Pathway to Positively Regulate Oxidative Stress” (CNS Neuroscience & Therapeutics, 2025).
Counter-ions that a name gives are not always drawn. Like-named read-outs stand apart in the source and are kept apart here.

What was measured:
[1] = Pharmacokinetic study of 10 major BYQZF components in plasma (UPLC-MS/MS); settings: for MRT last: MRT(0-t); for pharmacokinetics in MPTP + BYQZF group compared with BYQZF without MPTP group: p < 0.05
Protocol: (§1) 6‐week‐old male C57BL/6J mice (20 ± 2 g; n = 6 per group) were orally administered the herbal decoction (BYQZF) at a dose of 5 g crude drug/kg. The administration volume was 10 mL/kg, and the concentration of the drug solution was 0.5 g/mL. Plasma samples were collected on day 14 after 14 consecutive days of drug administration. […] The supernatant samples were collected after centrifugation (5000 rpm, 10 min) and stored at −80°C immediately until analysis.
(§2) Each 100 μL plasma aliquot obtained at predetermined intervals was supplemented with 5 μL of internal standard solution (IS, 1 μg/mL) and 10 μL enzymatic hydrolysis cocktail (β‐glucuronidase/sulfatase mixture: 200 U/2 U enzymatic activity). The mixture underwent vortex mixing followed by 1‐h enzymatic digestion at physiological temperature (37°C). Subsequent protein precipitation was achieved through methanol addition (300 μL) with vigorous shaking. After phase separation by centrifugation (5000 rpm, 5 min), the organic supernatant was carefully decanted and subjected to nitrogen‐stream evaporation until completely dry. The residue was then reconstituted in 100 μL of mobile phase consisting of aqueous 0.1% FA‐ACN (v:v = 95:5) using ultrasonic‐assisted dissolution. Prior to UPLC‐MS/MS analysis, the final solution underwent high‐speed clarification centrifugation (13,000 rpm, 10 min) to remove particulate matter. The drug concentration‐time profiles were constructed, and pharmacokinetic parameters were analyzed using DAS 3.2.8 software.

[2] = test system: Nrf2/HO-1 pathway; set-up: method as in PMID 27535021; settings: hydrogen peroxide-induced oxidative stress ref 37; cited from earlier work
[3] = mouse, in vivo, po
Protocol: as §1, §2

[4] = test system: Nrf2/GPX4 pathway; set-up: method as in PMID 39631720, PMID 27632381; settings: PD models ref 40, 41; cited from earlier work
[5] = set-up: method as in PMID 28163115; settings: cited from earlier work
[6] = test system: SH-SY5Y cells; assay: Annexin V-PE apoptosis detection (flow cytometry) in MPP+-treated SH-SY5Y cells; type: cell-based, human; settings: Control siRNA; 1 mM MPP+ alone or followed by 4 μg/mL BYQZF 48 h; control cells 1.65%
Protocol: The experiment used the human neuroblastoma SH‐SY5Y cell line to construct a stable transfected cell line. Cells were grown in a 1:1 MEM/F12 medium blend with added 15% fetal bovine serum for nutritional support. To avoid bacterial contamination, 500 IU/mL of penicillin and 500 μg/mL of streptomycin were incorporated. Cells were cultured at 37°C with 5% CO2 to maintain a pH of 7.2–7.4. The cell passage ratio was 1:2 to 1:4, and medium was replaced every 48–72 h to maintain the cells in the logarithmic growth phase. Routine testing confirmed that the cells were free from mycoplasma, bacterial, and fungal contamination. For cell freezing, a cryopreservation solution consisting of 60% base medium, 30% FBS, and 10% DMSO was used, and cells were stored in liquid nitrogen for long‐term preservation. The human Nrf2 knockdown plasmid, crafted by GeneChem, was used to transfect SH‐SY5Y cells seeded at a concentration of 100,000 cells per milliliter, utilizing the optimal amount of Lipofectamine 3000 (Invitrogen) in accordance with the protocol. 48 h subsequent to transfection, cells were exposed to 1 mM MPP^+ in the culture environment, and subsequently treated with 4 μg/mL BYQZF for another 48 h.

[7] = male, C57BL/6J, mouse, plasma, po, 5 g/kg, AUC(0-t), plasma, oral BYQZF 5 g crude drug/kg, group BYQZF (without MPTP), n=6
[8] = male, C57BL/6J, mouse, plasma, po, 5 g/kg, AUC(0-t), plasma, oral BYQZF 5 g crude drug/kg, group MPTP+BYQZF (PD model mice), n=6
[9] = male, C57BL/6J, mouse, plasma, po, 5 g/kg, Cmax, plasma, oral BYQZF 5 g crude drug/kg, group BYQZF (without MPTP), n=6
[10] = male, C57BL/6J, mouse, plasma, po, 5 g/kg, Cmax, plasma, oral BYQZF 5 g crude drug/kg, group MPTP+BYQZF (PD model mice), n=6
[11] = male, C57BL/6J, mouse, plasma, po, 5 g/kg, plasma, oral BYQZF 5 g crude drug/kg, group BYQZF (without MPTP), n=6
[12] = male, C57BL/6J, mouse, plasma, po, 5 g/kg, plasma, oral BYQZF 5 g crude drug/kg, group MPTP+BYQZF (PD model mice), n=6
[13] = plasma, oral BYQZF 5 g crude drug/kg, group BYQZF (without MPTP), n=6
[14] = plasma, oral BYQZF 5 g crude drug/kg, group MPTP+BYQZF (PD model mice), n=6

Molecule: O=c1c(O)c(-c2ccccc2)oc2ccccc12 [3-Hydroxyflavone]
- AUC(0-t) [1, 7]: 0.401 ± 0.0765 ng·h/mL
- AUC(0-t) [1, 8]: 0.341 ± 0.0517 ng·h/mL
- Cmax [1, 9]: 0.105 ± 0.0146 ng/mL
- Cmax [1, 10]: 0.0291 ± 0.00788 ng/mL
- MRT last [1, 11]: 5.17 ± 3.67 h
- MRT last [1, 12]: 13 ± 1.72 h
- pharmacokinetics in MPTP + BYQZF group compared with BYQZF without MPTP group ([1]; oral BYQZF 5 g crude drug/kg): significantly different

Molecule: COc1ccc2cc3[n+](cc2c1OC)CCc1cc2c(cc1-3)OCO2 [Berberine hydrochloride]
- Nrf2/HO-1 pathway [2]: can activate

Molecule: Manninotriose
- pharmacokinetics in MPTP + BYQZF group compared with BYQZF without MPTP group [3]: significantly different

Molecule: C[C@@H]1O[C@@H](O[C@@H]2[C@@H](O)[C@H](OCCc3ccc(O)c(O)c3)O[C@H](COC(=O)/C=C/c3ccc(O)c(O)c3)[C@H]2O)[C@H](O)[C@H](O)[C@H]1O [Isoacteoside]
- AUC(0-t) [1, 7]: 2.8 ± 0.138 ng·h/mL
- AUC(0-t) [1, 8]: 2.18 ± 0.31 ng·h/mL
- Cmax [1, 9]: 0.248 ± 0.0148 ng/mL
- Cmax [1, 10]: 0.185 ± 0.00514 ng/mL
- MRT last [1, 11]: 7.9 ± 0.47 h
- MRT last [1, 12]: 8.87 ± 0.83 h
- pharmacokinetics in MPTP + BYQZF group compared with BYQZF without MPTP group ([1]; oral BYQZF 5 g crude drug/kg): significantly different

Molecule: C[C@@H]1O[C@@H](O[C@@H]2[C@@H](O)[C@H](OCCc3ccc(O)c(O)c3)O[C@H](CO)[C@H]2OC(=O)/C=C/c2ccc(O)c(O)c2)[C@H](O)[C@H](O)[C@H]1O [Acteoside]
- Nrf2/GPX4 pathway [4]: activate

Molecule: O[C@H]1[C@H](O)[C@@H](O)[C@H](O)[C@@H](O)[C@H]1O [Inositol]
- AUC(0-t) [1, 7]: 0.32 ± 0.0658 ng·h/mL
- AUC(0-t) [1, 8]: 0.0615 ± 0.0127 ng·h/mL
- Cmax [1, 9]: 0.0582 ± 0.0147 ng/mL
- Cmax [1, 10]: 0.0239 ± 0.00194 ng/mL
- MRT last [1, 11]: 2.81 ± 0.27 h
- MRT last [1, 12]: 11.2 ± 1.23 h

Molecule: N[C@@H](CCC(=O)O)C(=O)O [L-Glutamic acid]
- Cmax ([1]; male, C57BL/6J, mouse, in vivo, po, 5 g/kg): 0.0514 ± 0.00766 ng/mL
- Cmax ([1]; male, C57BL/6J, mouse, plasma, po, 5 g/kg): 0.0146 ± 0.00047 ng/mL
- AUC(0-t) [1, 7]: 0.102 ± 0.0119 ng·h/mL
- AUC(0-t) [1, 8]: 0.0832 ± 0.0112 ng·h/mL
- MRT last [1, 11]: 4.47 ± 1.61 h
- MRT last [1, 12]: 4.55 ± 1.19 h

Molecule: O=c1cc[nH]c(=O)[nH]1 [Uracil]
- AUC(0-t) [1, 7]: 0.413 ± 0.0753 ng·h/mL
- AUC(0-t) [1, 8]: 0.166 ± 0.0638 ng·h/mL
- Cmax [1, 9]: 0.23 ± 0.0219 ng/mL
- Cmax [1, 10]: 0.0395 ± 0.00762 ng/mL
- MRT last [1, 11]: 2.01 ± 1.68 h
- MRT last [1, 12]: 2.89 ± 0.17 h

Molecule: O=c1c(O[C@@H]2O[C@H](CO)[C@H](O)[C@H](O)[C@H]2O)c(-c2ccc(O)c(O)c2)oc2cc(O)cc(O)c12 [Hyperin]
- pharmacokinetics in MPTP + BYQZF group compared with BYQZF without MPTP group ([1]; oral BYQZF 5 g crude drug/kg): significantly different
- AUC(0-t) [1, 13]: 0.24678 ± 0.01186 ng·h/mL
- Cmax [1, 13]: 0.03885 ± 0.01016 ng/mL
- MRT(0-t) [1, 13]: 10.94 ± 0.64 h
- AUC(0-t) [1, 14]: 0.17287 ± 0.02918 ng·h/mL
- Cmax [1, 14]: 0.01989 ± 0.00355 ng/mL
- MRT(0-t) [1, 14]: 12.22 ± 2.29 h

Molecule: C[C@H]1[C@H]2[C@H](O[C@@H]3O[C@H](CO)[C@@H](O)[C@H](O)[C@H]3O)OC=C(C(=O)O)[C@H]2C[C@@H]1O [8-Epiloganic acid]
- pharmacokinetics in MPTP + BYQZF group compared with BYQZF without MPTP group [3]: significantly different

Molecule: O=c1c2cc(O)c(O)cc2oc2cc(O)c([C@@H]3O[C@H](CO)[C@@H](O)[C@H](O)[C@H]3O)c(O)c12 [Mangiferol]
- pharmacokinetics in MPTP + BYQZF group compared with BYQZF without MPTP group [3]: significantly different

Molecule: OCC1=C[C@@H](O)[C@]2(O[C@@H]3O[C@H](CO)[C@@H](O)[C@H](O)[C@H]3O[C@@H]3O[C@H](CO)[C@@H](O)[C@H](O)[C@H]3O)C=CO[C@@H](O[C@@H]3O[C@H](CO)[C@@H](O)[C@H](O)[C@H]3O)[C@H]12 [Rehmannioside D]
- spontaneous oxidation of endogenous dopamine [5]: inhibit

Molecule: C[n+]1ccc(-c2ccccc2)cc1 [MPP^+, 1‐Methyl‐4‐phenylpyridinium]
- proportion of apoptotic cells [6]: 7.95%

Molecule: N[C@@H](CC(=O)N[C@@H](CC(=O)O)C(=O)O)C(=O)O [L-beta-aspartyl-L-aspartic acid]
- pharmacokinetics in MPTP + BYQZF group compared with BYQZF without MPTP group ([1]; oral BYQZF 5 g crude drug/kg): significantly different
- AUC(0-t) [1, 13]: 0.01864 ± 0.00096 ng·h/mL
- Cmax [1, 13]: 0.02274 ± 0.00024 ng/mL
- MRT(0-t) [1, 13]: 2.02 ± 2.07 h
- AUC(0-t) [1, 14]: 0.01424 ± 0.0026 ng·h/mL
- Cmax [1, 14]: 0.00887 ± 0.00191 ng/mL
- MRT(0-t) [1, 14]: 2.13 ± 1.32 h
